Laboratory results: patent US8841087B2 (priority 2008, dated 2014)

Test system: clinical strains of Mycobacterium tuberculosis
Test: Reference phenotypic test of antibiotic sensitivity in solid medium
Format: cell-based
Conditions: Mycobacterium tuberculosis, read-out: minimum inhibitory concentration

CO[C@H]1/C=C/O[C@@]2(C)Oc3c(C)c(O)c4c(O)c(c(/C=N/N5CCN(C)CC5)c(O)c4c3C2=O)NC(=O)/C(C)=C\C=C\[C@H](C)[C@H](O)[C@@H](C)[C@@H](O)[C@@H](C)[C@H](OC(C)=O)[C@@H]1C [rifampicin]
MIC: > 1 µg/mL
